# Reference: patent US8192962B2, “Processes for detecting toxic substances” (Daikin Industries, Ltd., priority 2001, dated 2012)
# System: Unknown protein yeast genes
# Experiment: DNA chip mRNA expression in yeast, unknown protein yeast genes (Table 1)
# Format: cell-based, Saccharomyces cerevisiae S288C
# Experimental: Yeast (Saccharomyces cerevisiae S288C (α SUC2mal mel gap2 CUP1)) were incubated at 25° C. on YPD medium (yeast extract 1%, polypepton 2%, glucose 2%). One of toxic chemical substances was added to the cells at logarithmic growth phase, and the cells were further incubated for two hours. Cells were cultured without any chemical substance in the same condition, and were used as control. Concentrations of the chemical substances were defined to inhibit the growth of the yeast but not lead to death.
# After completion of the incubation, the culture was centrifuged to collect the cells. To the cells, sodium acetate buffer (50 mM sodium acetate, 10 mM EDTA, 1% SDS) was added, and the mixture was shaken at 65° C. for five minutes, followed by returning to room temperature, and obtaining the supernatant, of which the procedures were repeated two times. To the supernatant, ½ amount of a solution of phenol/chloroform was added, and the mixture was centrifuged to give a supernatant, which was added with an equal amount of chloroform, and the mixture was centrifuged to give a supernatant. To the supernatant, an equal amount of isopropanol containing 0.3 M sodium acetate was added, and the mixture was allowed to stand at room temperature for 30 minutes, after which the mixture was centrifuged to give a sediment of the whole RNAs. Seventy % ethanol was added to the sediment, and the mixture was again centrifuged to give a sediment, which was then dried and dissolved in water. mRNA was isolated from the whole RNAs as followings. In view of the fact that a poly A chain is attached to the 3′ terminus of mRNA, a polynucleotide having a poly T structure which was immobilized on the surface of latex beads was used to trap the mRNA, and then the mRNA was washed and eluted with spine column (Oligotex-dT30<Super>mRNA Purification Kit, Takara). Reverse transcription of the mRNA was conducted with a reverse transcriptase (Super Script II Reverse Transcriptase; catalogue No. 18064-014, GibcoBRL) using fluorescence-labeled nucleotides to give cDNAs that were introduced with Cy3-dUTP or Cy5-dUTP during the reverse transcription.
# The labeled cDNAs were dissolved in TE buffer (10mM Tris-HCl/1 mM EDTA, pH8.0), and the solution was dropped on the DNA chip containing the whole genes of yeast (DNA Chip Research Inc. Japan) so that the cDNAs were hybridized on the DNA chip at 65° C. for over 12 hours. The fluoresces intensity of the DNA chip was read with a scanner, and the ratio relative to the fluorescence intensity resulting from the absence of chemical substance was estimated as the following, which is shown in Tables 1 to 9: […]
compound,measurement,setting,value
"[Cl][Hg][Cl] [(3), HgCl2]",The level of expressed mRNA in the presence of chemical substance/The level of expressed mRNA in the absence of chemical substance,"yeast gene YKL195W, incubated two hours with chemical substance",0.4
same,The level of expressed mRNA in the presence of chemical substance/The level of expressed mRNA in the absence of chemical substance,"yeast gene YKR091W, incubated two hours with chemical substance",0.9
same,The level of expressed mRNA in the presence of chemical substance/The level of expressed mRNA in the absence of chemical substance,"yeast gene YLR054C, incubated two hours with chemical substance",0.4
same,The level of expressed mRNA in the presence of chemical substance/The level of expressed mRNA in the absence of chemical substance,"yeast gene YLR149C, incubated two hours with chemical substance",3.4
same,The level of expressed mRNA in the presence of chemical substance/The level of expressed mRNA in the absence of chemical substance,"yeast gene YLR152C, incubated two hours with chemical substance",1.1
same,The level of expressed mRNA in the presence of chemical substance/The level of expressed mRNA in the absence of chemical substance,"yeast gene YLR194C, incubated two hours with chemical substance",1.3
same,The level of expressed mRNA in the presence of chemical substance/The level of expressed mRNA in the absence of chemical substance,"yeast gene YLR324W, incubated two hours with chemical substance",0.9
same,The level of expressed mRNA in the presence of chemical substance/The level of expressed mRNA in the absence of chemical substance,"yeast gene YLR350W, incubated two hours with chemical substance",3.2
same,The level of expressed mRNA in the presence of chemical substance/The level of expressed mRNA in the absence of chemical substance,"yeast gene YLR387C, incubated two hours with chemical substance",0.8
same,The level of expressed mRNA in the presence of chemical substance/The level of expressed mRNA in the absence of chemical substance,yeast gene YLR460C,2.0
same,The level of expressed mRNA in the presence of chemical substance/The level of expressed mRNA in the absence of chemical substance,"yeast gene YML117W, incubated two hours with chemical substance",0.9
same,The level of expressed mRNA in the presence of chemical substance/The level of expressed mRNA in the absence of chemical substance,"yeast gene YMR009W, incubated two hours with chemical substance",0.5
same,The level of expressed mRNA in the presence of chemical substance/The level of expressed mRNA in the absence of chemical substance,"yeast gene YMR067C, incubated two hours with chemical substance",1.1
same,The level of expressed mRNA in the presence of chemical substance/The level of expressed mRNA in the absence of chemical substance,yeast gene YMR090W,2.3
same,The level of expressed mRNA in the presence of chemical substance/The level of expressed mRNA in the absence of chemical substance,"yeast gene YMR095C, incubated two hours with chemical substance",1.6
same,The level of expressed mRNA in the presence of chemical substance/The level of expressed mRNA in the absence of chemical substance,"yeast gene YMR097C, incubated two hours with chemical substance",0.7
same,The level of expressed mRNA in the presence of chemical substance/The level of expressed mRNA in the absence of chemical substance,"yeast gene YMR102C, incubated two hours with chemical substance",1.1
same,The level of expressed mRNA in the presence of chemical substance/The level of expressed mRNA in the absence of chemical substance,"yeast gene YMR107W, incubated two hours with chemical substance",1.7
same,The level of expressed mRNA in the presence of chemical substance/The level of expressed mRNA in the absence of chemical substance,"yeast gene YMR180C, incubated two hours with chemical substance",1.0
same,The level of expressed mRNA in the presence of chemical substance/The level of expressed mRNA in the absence of chemical substance,"yeast gene YMR184W, incubated two hours with chemical substance",1.0
same,The level of expressed mRNA in the presence of chemical substance/The level of expressed mRNA in the absence of chemical substance,"yeast gene YMR191W, incubated two hours with chemical substance",1.9
same,The level of expressed mRNA in the presence of chemical substance/The level of expressed mRNA in the absence of chemical substance,"yeast gene YMR295C, incubated two hours with chemical substance",1.2
same,The level of expressed mRNA in the presence of chemical substance/The level of expressed mRNA in the absence of chemical substance,"yeast gene YMR316W, incubated two hours with chemical substance",1.1
same,The level of expressed mRNA in the presence of chemical substance/The level of expressed mRNA in the absence of chemical substance,"yeast gene YNL044W, incubated two hours with chemical substance",2.3
same,The level of expressed mRNA in the presence of chemical substance/The level of expressed mRNA in the absence of chemical substance,"yeast gene YNL074C, incubated two hours with chemical substance",1.8
same,The level of expressed mRNA in the presence of chemical substance/The level of expressed mRNA in the absence of chemical substance,"yeast gene YNL092W, incubated two hours with chemical substance",2.4
same,The level of expressed mRNA in the presence of chemical substance/The level of expressed mRNA in the absence of chemical substance,"yeast gene YNL115C, incubated two hours with chemical substance",1.6
same,The level of expressed mRNA in the presence of chemical substance/The level of expressed mRNA in the absence of chemical substance,"yeast gene YNL156C, incubated two hours with chemical substance",0.9
same,The level of expressed mRNA in the presence of chemical substance/The level of expressed mRNA in the absence of chemical substance,"yeast gene YNL234W, incubated two hours with chemical substance",0.6
same,The level of expressed mRNA in the presence of chemical substance/The level of expressed mRNA in the absence of chemical substance,"yeast gene YNL281W, incubated two hours with chemical substance",2.0
same,The level of expressed mRNA in the presence of chemical substance/The level of expressed mRNA in the absence of chemical substance,"yeast gene YNL305C, incubated two hours with chemical substance",2.7
same,The level of expressed mRNA in the presence of chemical substance/The level of expressed mRNA in the absence of chemical substance,"yeast gene YNR068C, incubated two hours with chemical substance",2.3
same,The level of expressed mRNA in the presence of chemical substance/The level of expressed mRNA in the absence of chemical substance,"yeast gene YOL032W, incubated two hours with chemical substance",2.0
same,The level of expressed mRNA in the presence of chemical substance/The level of expressed mRNA in the absence of chemical substance,"yeast gene YOL036W, incubated two hours with chemical substance",1.3
same,The level of expressed mRNA in the presence of chemical substance/The level of expressed mRNA in the absence of chemical substance,"yeast gene YOL047C, incubated two hours with chemical substance",1.1
same,The level of expressed mRNA in the presence of chemical substance/The level of expressed mRNA in the absence of chemical substance,"yeast gene YOL071W, incubated two hours with chemical substance",1.7
same,The level of expressed mRNA in the presence of chemical substance/The level of expressed mRNA in the absence of chemical substance,"yeast gene YOL082W, incubated two hours with chemical substance",1.6
same,The level of expressed mRNA in the presence of chemical substance/The level of expressed mRNA in the absence of chemical substance,"yeast gene YOL083W, incubated two hours with chemical substance",1.2
same,The level of expressed mRNA in the presence of chemical substance/The level of expressed mRNA in the absence of chemical substance,"yeast gene YOL117W, incubated two hours with chemical substance",0.5
same,The level of expressed mRNA in the presence of chemical substance/The level of expressed mRNA in the absence of chemical substance,"yeast gene YOL131W, incubated two hours with chemical substance",0.6
same,The level of expressed mRNA in the presence of chemical substance/The level of expressed mRNA in the absence of chemical substance,yeast gene YOL150C,9.9
same,The level of expressed mRNA in the presence of chemical substance/The level of expressed mRNA in the absence of chemical substance,"yeast gene YOL162W, incubated two hours with chemical substance",1.7
same,The level of expressed mRNA in the presence of chemical substance/The level of expressed mRNA in the absence of chemical substance,"yeast gene YOR019W, incubated two hours with chemical substance",0.8
same,The level of expressed mRNA in the presence of chemical substance/The level of expressed mRNA in the absence of chemical substance,"yeast gene YOR197W, incubated two hours with chemical substance",1.1
same,The level of expressed mRNA in the presence of chemical substance/The level of expressed mRNA in the absence of chemical substance,"yeast gene YPL087W, incubated two hours with chemical substance",3.0
same,The level of expressed mRNA in the presence of chemical substance/The level of expressed mRNA in the absence of chemical substance,"yeast gene YPL196W, incubated two hours with chemical substance",1.3
same,The level of expressed mRNA in the presence of chemical substance/The level of expressed mRNA in the absence of chemical substance,"yeast gene YPL206C, incubated two hours with chemical substance",1.4
same,The level of expressed mRNA in the presence of chemical substance/The level of expressed mRNA in the absence of chemical substance,"yeast gene YPL222W, incubated two hours with chemical substance",0.8
same,The level of expressed mRNA in the presence of chemical substance/The level of expressed mRNA in the absence of chemical substance,"yeast gene YPR023C, incubated two hours with chemical substance",1.2
same,The level of expressed mRNA in the presence of chemical substance/The level of expressed mRNA in the absence of chemical substance,"yeast gene YPR151C, incubated two hours with chemical substance",1.5
